Reference: patent US20070105780A1, “Therapeutic agent for iNOS generating illness” (priority 2005, published 2007)
“Also recorded” adds a separate entry of the source. Where a SMILES comes first, the peptide text is derived from it. [ ]: non-standard residue; d: D form. The star is where a group is joined. Sta = CC(C)C[C@H](N)[C@@H](O)CC(=O)O; Isovaleryl = CC(C)CC(=O)*; Nle = CCCC[C@H](N)C(=O)O

T1: calpain (Mus musculus, UniProt O35350)
T1 construct: enzymatic activity of calpain in the supernatant fraction of the dexamethasone treated, induced cell lysate
T1 sequence (O35350 1-713): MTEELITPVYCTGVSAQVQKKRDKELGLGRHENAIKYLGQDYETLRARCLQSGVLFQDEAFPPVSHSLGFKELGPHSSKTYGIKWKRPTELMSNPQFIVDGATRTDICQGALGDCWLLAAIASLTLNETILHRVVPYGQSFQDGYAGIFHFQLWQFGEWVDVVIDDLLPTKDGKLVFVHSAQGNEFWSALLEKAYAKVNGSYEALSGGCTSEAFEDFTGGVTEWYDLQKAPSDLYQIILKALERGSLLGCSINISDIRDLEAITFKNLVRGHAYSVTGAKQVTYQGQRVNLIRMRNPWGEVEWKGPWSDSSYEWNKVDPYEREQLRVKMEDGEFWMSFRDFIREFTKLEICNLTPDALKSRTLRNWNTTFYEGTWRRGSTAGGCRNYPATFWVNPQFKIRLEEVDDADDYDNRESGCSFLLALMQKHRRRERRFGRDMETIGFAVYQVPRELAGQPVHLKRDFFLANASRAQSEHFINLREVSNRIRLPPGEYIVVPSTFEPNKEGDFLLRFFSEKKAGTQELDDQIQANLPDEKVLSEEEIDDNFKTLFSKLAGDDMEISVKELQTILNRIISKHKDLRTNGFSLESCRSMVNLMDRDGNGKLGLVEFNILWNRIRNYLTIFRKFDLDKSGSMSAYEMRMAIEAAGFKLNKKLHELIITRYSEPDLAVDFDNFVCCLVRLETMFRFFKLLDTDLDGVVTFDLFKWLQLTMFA
T1 sequence (O88456 1-268 partner): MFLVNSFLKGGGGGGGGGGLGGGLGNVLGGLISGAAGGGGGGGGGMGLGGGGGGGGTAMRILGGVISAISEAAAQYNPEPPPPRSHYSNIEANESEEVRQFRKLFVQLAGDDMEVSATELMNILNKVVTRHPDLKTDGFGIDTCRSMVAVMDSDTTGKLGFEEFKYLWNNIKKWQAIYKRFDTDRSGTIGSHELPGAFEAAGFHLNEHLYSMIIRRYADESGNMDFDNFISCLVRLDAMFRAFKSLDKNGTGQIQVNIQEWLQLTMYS


Assays:
calpain = biological target: T1, calpain; conditions: supernatant fraction of dexamethasone treated, induced cell lysate; cited from earlier work
[1] = system: proteolytic cleavage of iNOS in induced DLD-1-5B2 cells; test: Inhibition of the cleavage of iNOS in situ in induced DLD-1-5B2 cells (Western blot of particulate fraction); assay type: cell-based, human; conditions: nine hours; for fragmentation (proteolytic cleavage) of iNOS in situ: 24-well plates, 20 μg/well, inhibitor added three hours after start of induction, Western blot FIG. 8; for fragmentation (proteolytic cleavage) of iNOS in situ, larger scale production: T-75 flasks, inhibitor added 3 hours after induction, Western blot FIG. 9
Protocol: DLD-1-5B2 cells, two days past confluence, were induced to express human iNOS using a mixture of recombinant human gamma interferon (rhIFNγ) at 8.33 ng/ml, recombinant human tumor necrosis factor-alpha (rhTNFα) at 3.3 ng/ml, and recombinant human interleukin-1β (rhIL-1β) at 3.3 ng/ml for 12-18 hours before being washed and harvested with trypsin/EDTA. The induced cells were washed three times with sterile PBS, transferred into sterile tubes in a small volume of sterile PBS, and stored frozen at −20° C. until processed for the isolation and fractionation of iNOS.
The frozen, induced DLD-1-5B2 cells were thawed in an ice water bath and lysed by two rapid freeze/thaw cycles using dry ice. The iNOS produced by the induced DLD-1-5B2 cells was then fractionated into a supernatant (soluble) fraction and a particulate fraction. The lysed cells were centrifuged at 16,000×g at 4° C. for 30 minutes to pellet the particulate fraction. The supernatant fraction that contained the soluble iNOS was transferred and stored at −20° C. or used fresh. The pellets were washed once, resuspended in a small volume of ice cold sterile PBS, and the resulting particulate fraction of iNOS was stored at −20° C. or used fresh.
The ability of six specific protease inhibitors to inhibit the cleavage of iNOS in situ was investigated using induced DLD-1-5B2 cells cultured in 24-well plates. Briefly, DLD-1-5B2 cells were cultured in 24-well plates instead of T-75 flasks, as described previously. Two days past confluence, the cells were induced with the same mixture of cytokines, but after three hours, the induction medium was removed from each well, the cells washed with pre-warmed sterile saline, and the medium replaced either with fresh DMEM, or with DMEM containing one of the six protease inhibitors being tested. Each inhibitor was assayed in triplicate at 20 μg/well. Nine hours later (12 hours after the start of the induction) the medium containing the inhibitors was removed, the cells were washed three times with ice-cold PBS, and the 24-well plates were placed on sheets of ice for 10 minutes to loosen the cells from the bottom of the plastic wells. The cells were blown off each well individually using a mechanical pipettor, sterile pipet tips, and ice-cold, sterile PBS. The cells were transferred to individual microfuge tubes on ice, collected by centrifugation, and washed twice with sterile, ice-cold PBS. No trypsin or other protease or EDTA was used during the harvesting or processing of the induced cells. The cells were lysed by 2 freeze/thaw cycles using dry ice and processed as previously described to isolate a supernatant fraction and a particulate fraction by centrifugation at 16,000×g. Both fractions were assayed in duplicate using the chemiluminescent EIA taught in U.S. patent application Ser. No. 09/628,585, and pools of the triplicate samples obtained for each protease inhibitor were analyzed by western blot. No statistically significant difference was found in the amount of iNOS contained in any of the supernatant fractions when compared to other supernatant fractions. Likewise, no statistically significant difference was found in the amount of iNOS contained in any of the particulate fractions when compared to other particulate fractions as measured by the EIA. Further, the distribution of iNOS between the supernatant and particulate fractions was similar for all the samples: the percent of the total iNOS in the supernatant fraction ranged from 55% to 65% and the percent of the total iNOS in the particulate fraction ranged from 35% to 45%. However, as is shown in FIG. 8, a difference in the form of the iNOS was found in the particulate fractions obtained from two of the protease inhibitors.
The quantity of particulate fraction produced was scaled up in T-75 culture flasks for both of these protease inhibitors in order to make enough material to be tested for their individual lethality in our mouse model of sepsis. […]

mouse model of sepsis = test: Lethality of particulate fractions produced in presence of protease inhibitors, mouse model of sepsis; assay type: in vivo; conditions: LPS primed mice, N=10 per group; E-64 vs no inhibitor P<0.0002, vs SBTI P<0.002
Protocol: It was reasoned that the conversion of soluble iNOS to particulate iNOS, and thereby to lethal iNOS, might be the result of the proteolytic cleavage of the intact protein molecule. It was hypothesized that decreasing the cleavage process might be beneficial to septic patients since the lethal form of iNOS would be reduced or eliminated. This hypothesis was tested using various protease inhibitors. The loss of lethality produced by specific protease inhibitors was assessed by testing the lethal effects exerted by the administration of the particulate iNOS produced in the presence and absence of protease inhibitors to LPS primed mice.
The three particulate fractions prepared in Example IX were tested for their lethality on groups of mice (5 female and 5 male mice per group, N=10) using our mouse model of sepsis. […] It is believed that treatment of septic patients with a protease inhibitor that decreases or stops the cleavage of iNOS in vivo could serve as an effective therapy for SIRS, sepsis, severe sepsis and septic shock.

Molecule	cleavage of recombinant iNOS protein by calpain (calpain)	fragmentation (proteolytic cleavage) of iNOS in situ [1]	fragmentation (proteolytic cleavage) of iNOS in situ, larger scale production [1]	lethality of the particulate iNOS fraction isolated from cells induced in the presence of the inhibitor (mouse model of sepsis)	fragmentation (proteolytic cleavage) of iNOS in situ ([1]; listed as leupeptin)
CCCC[C@@H](C=O)NC(=O)[C@H](CC(C)C)NC(=O)[C@H](CC(C)C)NC(C)=O [Ac-Leu-Leu-NLeu-al] (Ac-Leu-Leu-[Nle]-aldehyde)	inhibit such cleavage				
CC(C)C[C@H](NC(=O)[C@H]1O[C@@H]1C(=O)O)C(=O)NCCCCN=C(N)N [E-64]	inhibit such cleavage	inhibited the proteolytic cleavage of the intact iNOS protein; also recorded: stopped (inhibited) the fragmentation of iNOS in situ	inhibiting the proteolytic cleavage of intact iNOS protein; also recorded: inhibit the fragmentation of iNOS in situ	decrease the lethality of the particulate iNOS fraction; also recorded: statistically significant decrease in lethality	
CC(=O)N[C@@H](CC(C)C)C(=O)N[C@@H](CC(C)C)C(=O)N[C@H](C=O)CCCNC(=N)N [Leupeptin, leupeptin]	inhibit such cleavage	stopped (inhibited) the fragmentation of iNOS in situ		decrease the lethality of the particulate iNOS fraction	inhibited the proteolytic cleavage of the intact iNOS protein
CC(C)CC(=O)N[C@H](C(=O)N[C@H](C(=O)N[C@@H](CC(C)C)[C@@H](O)CC(=O)N[C@@H](C)C(=O)N[C@@H](CC(C)C)[C@@H](O)CC(=O)O)C(C)C)C(C)C [pepstatin-A] (Isovaleryl-VV[Sta]A[Sta]-OH)		did not stop (inhibit) this cleavage process		had no effect on the lethality of the particulate iNOS fraction	
aprotinin		did not stop (inhibit) this cleavage process			
α1-protease inhibitor: protease inhibitor		did not stop (inhibit) this cleavage process		had no effect on the lethality of the particulate iNOS fraction	
soybean trypsin inhibitor: protease inhibitor (protein, UniProt P01070 25-205, looked up) Trypsin inhibitor A: DFVLDNEGNPLENGGTYYILSDITAFGGIRAAPTGNERCPLTVVQSRNELDKGIGTIISSPYRIRFIAEGHPLSLKFDSFAVIMLCVGIPTEWSVVEDLPEGPAVKIGENKDAMDGWFRLERVSDDEFNNYKLVFCPQQAEDDKCGDIGISIDHDDGTRRLVVSKNKPLVVQFQKLDKESL		did not stop (inhibit) this cleavage process	inability of soybean trypsin inhibitor (lane 2) to inhibit this cleavage process	had no effect on the lethality of the particulate iNOS fraction	
